Source: the NIST ThermoML archive (doi:10.1021/je060271a)
Several values for one entry are separate records, joined by “and”; a condition that tells them apart may be missing. Equal values may be shown once. ± gives the expanded uncertainty stated by the source.

Details: 323.16 K, Liquid, Vibrating tube method

CCCCCC(=O)OCC(COC(=O)CCCCC)(COC(=O)CCCCC)COC(=O)CCCCC [pentaerythritol tetrahexanoate]
Details	mass density
1057.9 kPa	973.4 ± 1.2 kg/m3
1108.4 kPa	973.5 ± 1.2 kg/m3
1111.9 kPa	973.6 ± 1.2 kg/m3
1116.1 kPa	973.5 ± 1.2 kg/m3
1120.2 kPa	973.4 ± 1.2 kg/m3
1124.1 kPa	973.4 ± 1.2 kg/m3
1169 kPa	973.6 ± 1.2 kg/m3
1173 kPa	973.5 ± 1.2 kg/m3
1178.4 kPa	973.6 ± 1.2 kg/m3
1182.7 kPa	973.5 ± 1.2 kg/m3
1188.3 kPa	973.4 ± 1.2 kg/m3
1192.5 kPa	973.4 ± 1.2 kg/m3
1197 kPa	973.5 ± 1.2 kg/m3
1201.3 kPa	973.4 ± 1.2 kg/m3
1206.2 kPa	973.5 ± 1.2 kg/m3
1211.4 kPa	973.6 ± 1.2 kg/m3
1215.4 kPa	973.6 ± 1.2 kg/m3
1219.4 kPa	973.6 ± 1.2 kg/m3
1224.6 kPa	973.5 ± 1.2 kg/m3
1228.9 kPa	973.6 ± 1.2 kg/m3
1234 kPa	973.5 ± 1.2 kg/m3
1239.2 kPa	973.4 ± 1.2 kg/m3
1336.1 kPa	973.5 ± 1.2 kg/m3
1340.9 kPa	973.6 ± 1.2 kg/m3
1346.8 kPa	973.6 ± 1.2 kg/m3
1352 kPa	973.7 ± 1.2 kg/m3
1357.4 kPa	973.6 ± 1.2 kg/m3
1362.4 kPa	973.6 ± 1.2 kg/m3
1368 kPa	973.6 ± 1.2 kg/m3
1372.9 kPa	973.7 ± 1.2 kg/m3
1383.8 kPa	973.7 ± 1.2 kg/m3
1389.5 kPa	973.7 ± 1.2 kg/m3
1395.4 kPa	973.6 ± 1.2 kg/m3
1400.6 kPa	973.7 ± 1.2 kg/m3
1405.7 kPa	973.7 ± 1.2 kg/m3
1542.7 kPa	973.7 ± 1.2 kg/m3
1548.7 kPa	973.7 ± 1.2 kg/m3
1555.9 kPa	973.7 ± 1.2 kg/m3
1561.4 kPa	973.8 ± 1.2 kg/m3
1568.9 kPa	973.8 ± 1.2 kg/m3
1574.8 kPa	973.8 ± 1.2 kg/m3
1580.3 kPa	973.9 ± 1.2 kg/m3
1587.3 kPa	973.9 ± 1.2 kg/m3
1592.8 kPa	974 ± 1.2 kg/m3
1784.1 kPa	973.9 ± 1.2 kg/m3
1792.4 kPa	974 ± 1.2 kg/m3
1799.4 kPa	973.9 ± 1.2 kg/m3
1808.1 kPa	974 ± 1.2 kg/m3
1815.2 kPa	974 ± 1.2 kg/m3
1823.9 kPa	974 ± 1.2 kg/m3
1831.3 kPa	974 ± 1.2 kg/m3
1839.8 kPa	974 ± 1.2 kg/m3
1848.7 kPa	974 ± 1.2 kg/m3
1856.1 kPa	973.9 ± 1.2 kg/m3
1864.5 kPa	974 ± 1.2 kg/m3
1872.1 kPa	974 ± 1.2 kg/m3
1879.9 kPa	973.9 ± 1.2 kg/m3
1889.3 kPa	974 ± 1.2 kg/m3
1998.3 kPa	974 ± 1.2 kg/m3
2007.3 kPa	974 ± 1.2 kg/m3
2015.3 kPa	974.1 ± 1.2 kg/m3
2024.8 kPa	974.2 ± 1.2 kg/m3
2032.8 kPa	974.2 ± 1.2 kg/m3
2042.2 kPa	974.1 ± 1.2 kg/m3
2051.9 kPa	974.2 ± 1.2 kg/m3
2078.2 kPa	974.2 ± 1.2 kg/m3
2086.8 kPa	974.2 ± 1.2 kg/m3
2097.3 kPa	974.1 ± 1.2 kg/m3
2105.3 kPa	974.2 ± 1.2 kg/m3
2275.9 kPa	974.3 ± 1.2 kg/m3
2285.6 kPa	974.2 ± 1.2 kg/m3
2297.5 kPa	974.3 ± 1.2 kg/m3
2309.2 kPa	974.3 ± 1.2 kg/m3
2319 kPa	974.3 ± 1.2 kg/m3
2329.5 kPa	974.3 ± 1.2 kg/m3
2339.5 kPa	974.4 ± 1.2 kg/m3
2350.8 kPa	974.3 ± 1.2 kg/m3
2360.3 kPa	974.3 ± 1.2 kg/m3
2372.6 kPa	974.1 ± 1.2 kg/m3
2382.7 kPa	974.2 ± 1.2 kg/m3
2394.7 kPa	974.5 ± 1.2 kg/m3
2404.4 kPa	974.2 ± 1.2 kg/m3
2416.5 kPa	974.4 ± 1.2 kg/m3
2428.5 kPa	974.4 ± 1.2 kg/m3
2438.7 kPa	974.4 ± 1.2 kg/m3
2448.6 kPa	974.5 ± 1.2 kg/m3
2460.9 kPa	974.4 ± 1.2 kg/m3
2471.7 kPa	974.4 ± 1.2 kg/m3
2484.5 kPa	974.5 ± 1.2 kg/m3
3633.2 kPa	975.3 ± 1.2 kg/m3
3649.5 kPa	975.3 ± 1.2 kg/m3
3663.4 kPa	975.2 ± 1.2 kg/m3
3679.8 kPa	975.3 ± 1.2 kg/m3
3696.6 kPa	975.2 ± 1.2 kg/m3
3710.8 kPa	975.3 ± 1.2 kg/m3
3725 kPa	975.2 ± 1.2 kg/m3
3741.8 kPa	975.2 ± 1.2 kg/m3
3756 kPa	975.3 ± 1.2 kg/m3
3773.4 kPa	975.3 ± 1.2 kg/m3
3790.9 kPa	975.4 ± 1.2 kg/m3
9966.7 kPa	979.5 ± 1.2 kg/m3
9977.9 kPa	979.5 ± 1.2 kg/m3
10002 kPa	979.7 ± 1.2 kg/m3
10012 kPa	979.7 ± 1.2 kg/m3
10025 kPa	979.6 ± 1.2 kg/m3
10037 kPa	979.6 ± 1.2 kg/m3
10040 kPa	979.6 ± 1.2 kg/m3
10048 kPa	979.7 ± 1.2 kg/m3
10060 kPa	979.7 ± 1.2 kg/m3
10071 kPa	979.8 ± 1.2 kg/m3
10084 kPa	979.7 ± 1.2 kg/m3
10096 kPa	979.7 ± 1.2 kg/m3
11088 kPa	980.3 ± 1.2 kg/m3
11101 kPa	980.4 ± 1.2 kg/m3
11112 kPa	980.3 ± 1.2 kg/m3
11122 kPa	980.3 ± 1.2 kg/m3
11136 kPa	980.4 ± 1.2 kg/m3
11150 kPa	980.5 ± 1.2 kg/m3
11155 kPa	980.3 ± 1.2 kg/m3
11157 kPa	980.4 ± 1.2 kg/m3
11160 kPa	980.4 ± 1.2 kg/m3
11163 kPa	980.4 ± 1.2 kg/m3
11168 kPa	980.4 ± 1.2 kg/m3
11174 kPa	980.3 ± 1.2 kg/m3
11186 kPa	980.4 ± 1.2 kg/m3
11198 kPa	980.4 ± 1.2 kg/m3
11199 kPa	980.3 ± 1.2 kg/m3
11200 kPa	980.4 ± 1.2 kg/m3
12660 kPa	981.3 ± 1.2 kg/m3
12684 kPa	981.3 ± 1.2 kg/m3
12713 kPa	981.5 ± 1.2 kg/m3
12737 kPa	981.5 ± 1.2 kg/m3
12767 kPa	981.4 ± 1.2 kg/m3
12791 kPa	981.5 ± 1.2 kg/m3
12819 kPa	981.5 ± 1.2 kg/m3
12848 kPa	981.4 ± 1.2 kg/m3
12871 kPa	981.5 ± 1.2 kg/m3
12899 kPa	981.4 ± 1.2 kg/m3
15446 kPa	983.2 ± 1.2 kg/m3
15470 kPa	983.2 ± 1.2 kg/m3
15500 kPa	983.1 ± 1.2 kg/m3
16331 kPa	983.8 ± 1.2 kg/m3 and 983.7 ± 1.2 kg/m3
16333 kPa	983.7 ± 1.2 kg/m3
16334 kPa	983.8 ± 1.2 kg/m3 and 983.7 ± 1.2 kg/m3
16336 kPa	983.8 ± 1.2 kg/m3
